# Data taken from patent publication US5545639A, “Method of inhibiting transformed cells” (The United States of America as represented by the …, priority 1994, dated 1996).
# Experiments:
# DMS 273 = assay: Dose response of growth, tumor cell line; assay type: cell-based; conditions: Homo sapiens; DMS 273, small cell lung cancer; read-out: 50% Loss (50% kill)
# DMS 114 = assay: Dose response of growth, tumor cell line; assay type: cell-based; conditions: Homo sapiens; DMS 114, small cell lung cancer; read-out: 50% Loss (50% kill)
# Procedure: Indeed, 70% of the cell lines were shown not only to experience precluded growth, but cell death, when exposed to less then 100 μM of the active ingredient.
structure (smiles),measurement,setting,value
"ClCc1ccc2ccc3ccc(CCl)nc3c2n1 [2,9-bis(chloromethyl)-1,10-phenanthroline]",CC50,DMS 273,> 100 µM
same,CC50,DMS 114,7.72 µM
